Measurements taken from article PMC5320518, “Novel Liver-targeted conjugates of Glycogen Phosphorylase Inhibitor PSN-357 for the Treatment of Diabetes: Design, Synthesis, Pharmacokinetic and Pharmacological Evaluations” (Scientific Reports, 2017).

What was measured:
[1] = tested on: skeletal muscle function; parameters: method as in PMID 16046314, PMID 16731853; conditions: prolonged (60 min) muscle contraction, perfused rat hindlimb model; cited from earlier work
[2] = biological target: T1, rabbit muscle GPa (RMGPa) (Oryctolagus cuniculus, UniProt P00489); experiment: RMGPa inhibition assay (phosphate release from glucose-1-phosphate); type: biochemical; conditions: mean ± S.D. of three determinations; NI means no inhibition
T1 sequence (P00489 2-843 limits assumed): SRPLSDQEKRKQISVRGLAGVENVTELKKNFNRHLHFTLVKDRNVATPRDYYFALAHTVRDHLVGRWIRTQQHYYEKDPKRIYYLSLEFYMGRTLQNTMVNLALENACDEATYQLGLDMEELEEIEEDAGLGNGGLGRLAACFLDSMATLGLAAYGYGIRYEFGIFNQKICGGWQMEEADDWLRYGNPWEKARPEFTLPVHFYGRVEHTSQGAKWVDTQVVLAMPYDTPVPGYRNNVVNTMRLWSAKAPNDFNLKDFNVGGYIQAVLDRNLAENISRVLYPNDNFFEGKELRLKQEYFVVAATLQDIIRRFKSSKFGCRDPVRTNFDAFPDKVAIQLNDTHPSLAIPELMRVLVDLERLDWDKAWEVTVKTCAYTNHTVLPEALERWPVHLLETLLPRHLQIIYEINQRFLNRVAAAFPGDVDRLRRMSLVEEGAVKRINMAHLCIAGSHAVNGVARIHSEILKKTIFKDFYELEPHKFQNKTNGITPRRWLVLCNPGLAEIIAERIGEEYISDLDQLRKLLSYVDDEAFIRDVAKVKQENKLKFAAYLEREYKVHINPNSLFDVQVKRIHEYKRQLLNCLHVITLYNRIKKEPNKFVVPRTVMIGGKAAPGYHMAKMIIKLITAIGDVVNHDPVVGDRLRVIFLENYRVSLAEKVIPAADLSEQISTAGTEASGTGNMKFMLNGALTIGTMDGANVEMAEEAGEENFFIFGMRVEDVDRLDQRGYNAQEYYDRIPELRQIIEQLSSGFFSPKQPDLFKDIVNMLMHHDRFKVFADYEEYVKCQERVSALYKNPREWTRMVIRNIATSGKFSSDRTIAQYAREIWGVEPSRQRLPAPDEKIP
Experimental: All the compounds were evaluated for their inhibitory activity against rabbit muscle GPa (RMGPa). The activity of RMGPa was measured through detecting the release of phosphate from glucose-1-phosphate in the direction of glycogen synthesis. CP-91149, a well-known allosteric GP inhibitor, which shares the same binding site with PSN-357, was used as the positive control and the results are summarized in Table 1[21]. […] This remarkable loss of activity was probably due to the direct steric interference by such bulky substituent of cholic acid group. […] The results is consistent with the SARs of PSN-357 that the hydroxyl of piperidine is not an essential group for the GP inhibitory activity that could be modified slightly.
The inhibitory activity of the test compounds against rabbit muscle glycogen phosphorylase a (GPa) was monitored using microplate reader (BIO-RAD) based on the published method. In brief, GPa activity was measured in the direction of glycogen synthesis by the release of phosphate from glucose-1-phosphate. Each test compound was dissolved in DMSO and diluted at different concentrations for IC50 determination. The enzyme was added into 100 μL of buffer containing 50 mM Hepes (pH = 7.2), 100 mM KCl, 2.5 mM MgCl2, 0.5 mM glucose-1-phosphate, 1 mg/mL glycogen and the test compound in 96-well microplates (Costar). After the addition of 150 μL of 1 M HCl containing 10 mg/mL ammonium molybdate and 0.38 mg/mL malachite green, reactions were run at 22 °C for 25 min, and then the phosphate absorbance was measured at 655 nm. The IC50 values were estimated by fitting the inhibition data to a dose-dependent curve using a logistic derivative equation.

[3] = Stability in simulated gastric fluid (SGF); type: in vitro ADME; conditions: SGF pH 1.21 with pepsin, 2 μM, 37 °C, 24 h incubation
Experimental: (§1) All the conjugates were tested for their chemical and metabolic stability in multiple assays, including simulated gastric fluid (SGF), simulated interstinal fluid (SIF), mouse plasma, and mouse liver microsome (MLM).
(§2) For the stability in SGF (Fig. 8) and SIF (Fig. 9), the conjugates could be divided into three groups: (1) stable conjugates 2, 6 and 9. […] The two conjugates were degraded within 6 h and 1 h in SGF and SIF, respectively, with alomost no conjugates at the end of the 24 h incubation in both SGF and SIF; (3) complicated conjugates 3, 4, 5 and 8.
(§3) The simulated gastrointestinal fluids were prepared according to USP specifications. For SGF, NaCl (0.12 g) and pepsin (0.18 g, from porcine stomach mucosa) was dissolved in HCl (0.42 mL) and sufficient H2O was added to make 60 mL. The pH of the test solution was determined as 1.21 by pH meter. For the SIF, KH2PO4 (0.408 g) and pancreatin (0.6 g, from porcine pancreas) was dissolved in H2O (60 mL). The pH of the test solution was determined as 6.79 by pH meter. Each test compound was dissolved in DMSO and diluted to a final concentration of 2 μM in SIF and SGF. The final concentrations of DMSO and CH3CN in the incubation mixture were 0.2% and 0.45%. Aliquots of these solutions were pipetted into glass tubes, and placed in a 37 °C shaking water bath. Test samples at corresponding time point (1, 2, 6, 24 h) were removed at the end of incubation time and immediately mixed with 800 μL of cold acetonitrile containing 500 ng/mL tolbutamide (internal standard). Samples were subjected to centrifuge at 4000 rpm, 4 °C for 20 min. Aliquots 60 μL of supernatant was combined with 120 μL water for LC-MS/MS analysis.

[4] = Stability in simulated intestinal fluid (SIF); type: in vitro ADME; conditions: SIF pH 6.79 with pancreatin, 2 μM, 37 °C
Experimental: as §1, §2, §3

[5] = Stability in mouse plasma; type: in vitro ADME; conditions: 2 μM, 37 °C, 120-min test
Experimental: Frozen plasma from male C57 BL/6 mice was incubated for 5 min at 37 °C before the addition of the test compound. Then prepared 2 μM incubation sample, and aliquots of the incubation mixtures (100 μL) were taken at predetermined time points (10, 30, 60, 120 min) at 37 °C. After incubation, the mixtures was added 400 μL of 50% ACN/50% MeOH containing internal standard (IS, 200 ng/mL Tolbutamide and 20 ng/mL Buspirone) to each sample tube and then centrifuged at 13000 rpm for 8 min. Blank incubations in the absence of the test compound were also performed. The analyses of test compounds were performed by LC-MS/MS analysis.

[6] = Stability in mouse liver microsomes (MLM); type: in vitro ADME; conditions: C57BL/6, pH 7.4, n = 3
Experimental: Additionally, the compounds’ stability in microsome were evaluated by measuring the rate of compounds consumpation in MLM and the results are shown in Table 3.
The microsomal pellet was suspended in potassium phosphate buffer (100 mM, pH 7.4), 10 μM test compound or positive control (diclofenac) was added. Liver microsomes from C57BL/6 mice (BD Gentest) were pooled. The mixture of microsome solution and compound was incubated at 37 °C for about 10 min in the presence of a NADPH-regenerating system, consisting of 0.02 M DL-isocitric acid (trisodium salt), 0.1 mg/mL isocitrate dehydrogenase and 1 mM NADPH. The addition of ice-cold CH3CN (including 100 ng/mL tolbutamide as internal standard) terminated the reaction. The mixture was vortexed for approx (30 s), centrifuged (20 min, 4000 rpm) and the supernatant was collected and analysed by LC-MS/MS method.

Row | Compound | greater muscle fatigue than the control group [1] [%] | IC50 (RMGPa inhibition) [2] | stability in SGF (in words) [3] | time within which degraded in SIF [4] [h] | degradation in mouse plasma [5] | CLint scaled at 10 μM [6] [mL/min/kg] | half-life at 10 μM [6] [min] | microsomal CLint at 10 μM [6] [µL/min/mg] | melting point [°C]
1 | CP316819 | 35 |  |  |  |  |  |  |  | 
2 | CC(C)[C@H](NC(=O)CC[C@@H](C)[C@H]1CC[C@H]2[C@@H]3[C@H](O)C[C@@H]4C[C@H](O)CC[C@]4(C)[C@H]3C[C@H](O)[C@]12C)C(=O)OC1CCN(C(=O)[C@H](Cc2ccc(F)cc2)NC(=O)c2cc3cc(Cl)ncc3[nH]2)CC1 [Conjugate 4] |  | no activity | relatively stable | ≤ 1 | approximately 4% | 150 | 36.5 | 38 | 185 to 187
